Reference: the NIST ThermoML archive (doi:10.1016/j.fluid.2014.04.018)
Values joined by “and” are separate entries in the source; they are usually repeats but may differ in a detail not shown here. Equal entries are not always repeated.

Details: Liquid, Vibrating tube method

CCCOC(=O)CCCCC(=O)OCCC [dipropyl hexanedioate]
Details	mass density
293.15 K, 100 kPa	979.3 kg/m3
293.15 K, 520 kPa	979.7 kg/m3
293.15 K, 1040 kPa	980 kg/m3
293.15 K, 2530 kPa	981 kg/m3
293.15 K, 5020 kPa	982.5 kg/m3
293.15 K, 7510 kPa	984.1 kg/m3
293.15 K, 7530 kPa	984.2 kg/m3
293.15 K, 10010 kPa	985.7 kg/m3
293.15 K, 15050 kPa	988.9 kg/m3
293.15 K, 20010 kPa	991.8 kg/m3
293.15 K, 30030 kPa	997.7 kg/m3
293.15 K, 39800 kPa	1003.1 kg/m3
293.15 K, 50070 kPa	1008.4 kg/m3
293.15 K, 65000 kPa	1015.7 kg/m3
303.15 K, 100 kPa	970.4 kg/m3 and 970.3 kg/m3
303.15 K, 500 kPa	970.7 kg/m3
303.15 K, 510 kPa	970.7 kg/m3
303.15 K, 1010 kPa	971.1 kg/m3
303.15 K, 2510 kPa	972.1 kg/m3
303.15 K, 5000 kPa	973.8 kg/m3
303.15 K, 5030 kPa	973.8 kg/m3
303.15 K, 7510 kPa	975.5 kg/m3
303.15 K, 10010 kPa	977.1 kg/m3
303.15 K, 10020 kPa	977.1 kg/m3
303.15 K, 15010 kPa	980.4 kg/m3
303.15 K, 20000 kPa	983.5 kg/m3
303.15 K, 30000 kPa	989.6 kg/m3
303.15 K, 30010 kPa	989.6 kg/m3
303.15 K, 39800 kPa	995.2 kg/m3
303.15 K, 50010 kPa	1000.7 kg/m3
303.15 K, 64990 kPa	1008.3 kg/m3
303.15 K, 65010 kPa	1008.3 kg/m3
313.15 K, 100 kPa	961.5 kg/m3
313.15 K, 500 kPa	961.8 kg/m3
313.15 K, 1010 kPa	962.2 kg/m3
313.15 K, 2510 kPa	963.3 kg/m3
313.15 K, 5040 kPa	965.1 kg/m3
313.15 K, 7510 kPa	966.8 kg/m3
313.15 K, 10010 kPa	968.5 kg/m3
313.15 K, 15000 kPa	971.9 kg/m3
313.15 K, 19980 kPa	975.2 kg/m3
313.15 K, 30000 kPa	981.6 kg/m3
313.15 K, 39800 kPa	987.4 kg/m3
313.15 K, 39810 kPa	987.4 kg/m3
313.15 K, 50060 kPa	993.2 kg/m3
313.15 K, 65000 kPa	1001 kg/m3
323.15 K, 100 kPa	952.4 kg/m3
323.15 K, 500 kPa	952.8 kg/m3
323.15 K, 1010 kPa	953.2 kg/m3
323.15 K, 2530 kPa	954.3 kg/m3
323.15 K, 5020 kPa	956.2 kg/m3
323.15 K, 7510 kPa	958 kg/m3
323.15 K, 7550 kPa	958.1 kg/m3
323.15 K, 10000 kPa	959.9 kg/m3
323.15 K, 15030 kPa	963.4 kg/m3
323.15 K, 20010 kPa	966.9 kg/m3
323.15 K, 30010 kPa	973.5 kg/m3
323.15 K, 39820 kPa	979.5 kg/m3
323.15 K, 50020 kPa	985.5 kg/m3
323.15 K, 64990 kPa	993.7 kg/m3
333.15 K, 100 kPa	943.5 kg/m3
333.15 K, 500 kPa	943.9 kg/m3
333.15 K, 1020 kPa	944.3 kg/m3
333.15 K, 2520 kPa	945.5 kg/m3
333.15 K, 5010 kPa	947.5 kg/m3
333.15 K, 7510 kPa	949.4 kg/m3
333.15 K, 10000 kPa	951.3 kg/m3
333.15 K, 15000 kPa	955.1 kg/m3
333.15 K, 20000 kPa	958.7 kg/m3
333.15 K, 30020 kPa	965.6 kg/m3
333.15 K, 39790 kPa	971.9 kg/m3
333.15 K, 50050 kPa	978.1 kg/m3
333.15 K, 65000 kPa	986.5 kg/m3
343.15 K, 100 kPa	934.6 kg/m3
343.15 K, 520 kPa	935 kg/m3
343.15 K, 1040 kPa	935.5 kg/m3
343.15 K, 2540 kPa	936.7 kg/m3
343.15 K, 5020 kPa	938.8 kg/m3
343.15 K, 7510 kPa	940.8 kg/m3
343.15 K, 7520 kPa	940.8 kg/m3
343.15 K, 10020 kPa	942.8 kg/m3
343.15 K, 15000 kPa	946.7 kg/m3
343.15 K, 20030 kPa	950.6 kg/m3
343.15 K, 29580 kPa	957.4 kg/m3
343.15 K, 39860 kPa	964.3 kg/m3
343.15 K, 50020 kPa	970.7 kg/m3
343.15 K, 65000 kPa	979.4 kg/m3
353.15 K, 100 kPa	925.7 kg/m3
353.15 K, 510 kPa	926.1 kg/m3
353.15 K, 1020 kPa	926.5 kg/m3
353.15 K, 2530 kPa	927.9 kg/m3
353.15 K, 5020 kPa	930.1 kg/m3
353.15 K, 7510 kPa	932.2 kg/m3
353.15 K, 7530 kPa	932.2 kg/m3
353.15 K, 10000 kPa	934.3 kg/m3
353.15 K, 14550 kPa	938 kg/m3
353.15 K, 20020 kPa	942.3 kg/m3
353.15 K, 30010 kPa	949.8 kg/m3
353.15 K, 39800 kPa	956.7 kg/m3
353.15 K, 49990 kPa	963.4 kg/m3
353.15 K, 64990 kPa	972.4 kg/m3
363.15 K, 100 kPa	916.7 kg/m3
363.15 K, 500 kPa	917.2 kg/m3
363.15 K, 980 kPa	917.6 kg/m3
363.15 K, 2520 kPa	919.1 kg/m3
363.15 K, 5000 kPa	921.3 kg/m3
363.15 K, 7480 kPa	923.6 kg/m3
363.15 K, 10020 kPa	925.8 kg/m3
363.15 K, 15020 kPa	930.1 kg/m3
363.15 K, 20020 kPa	934.2 kg/m3
363.15 K, 30020 kPa	942 kg/m3
363.15 K, 39810 kPa	949.1 kg/m3
363.15 K, 50050 kPa	956.1 kg/m3
363.15 K, 64970 kPa	965.4 kg/m3

CCCCC(CC)COC(=O)CCCCC(=O)OCC(CC)CCCC (centres undefined) [bis(2-ethylhexyl) adipate]
Details	mass density
293.15 K, 100 kPa	925.4 kg/m3
293.15 K, 2510 kPa	926.9 kg/m3
293.15 K, 5000 kPa	928.4 kg/m3 and 928.3 kg/m3
293.15 K, 5010 kPa	928.4 kg/m3
293.15 K, 7550 kPa	929.9 kg/m3
293.15 K, 10010 kPa	931.3 kg/m3
293.15 K, 10020 kPa	931.3 kg/m3
293.15 K, 15040 kPa	934.2 kg/m3
293.15 K, 20020 kPa	937 kg/m3
293.15 K, 30030 kPa	942.4 kg/m3
293.15 K, 40010 kPa	947.4 kg/m3
293.15 K, 40020 kPa	947.4 kg/m3
293.15 K, 50020 kPa	952.3 kg/m3
293.15 K, 68030 kPa	960.4 kg/m3 and 960.3 kg/m3
313.15 K, 100 kPa	910.3 kg/m3
313.15 K, 2530 kPa	911.9 kg/m3
313.15 K, 2540 kPa	911.9 kg/m3
313.15 K, 5020 kPa	913.5 kg/m3
313.15 K, 7540 kPa	915.2 kg/m3
313.15 K, 10010 kPa	916.7 kg/m3
313.15 K, 15010 kPa	919.8 kg/m3
313.15 K, 20000 kPa	922.8 kg/m3
313.15 K, 30030 kPa	928.7 kg/m3
313.15 K, 40020 kPa	934.1 kg/m3
313.15 K, 50010 kPa	939.3 kg/m3
313.15 K, 68050 kPa	947.9 kg/m3
333.15 K, 100 kPa	895.3 kg/m3
333.15 K, 2500 kPa	897.1 kg/m3
333.15 K, 5000 kPa	898.8 kg/m3
333.15 K, 7480 kPa	900.6 kg/m3
333.15 K, 9990 kPa	902.3 kg/m3
333.15 K, 14990 kPa	905.7 kg/m3
333.15 K, 19970 kPa	908.9 kg/m3
333.15 K, 30010 kPa	915.2 kg/m3
333.15 K, 39990 kPa	921 kg/m3
333.15 K, 50020 kPa	926.6 kg/m3
333.15 K, 68010 kPa	935.8 kg/m3
353.15 K, 100 kPa	880.4 kg/m3
353.15 K, 2500 kPa	882.3 kg/m3
353.15 K, 2510 kPa	882.3 kg/m3
353.15 K, 5000 kPa	884.2 kg/m3
353.15 K, 7510 kPa	886.1 kg/m3
353.15 K, 10000 kPa	888 kg/m3
353.15 K, 15010 kPa	891.7 kg/m3
353.15 K, 20020 kPa	895.2 kg/m3
353.15 K, 30030 kPa	902 kg/m3
353.15 K, 40020 kPa	908.2 kg/m3
353.15 K, 50010 kPa	914.1 kg/m3
353.15 K, 68010 kPa	923.9 kg/m3
373.15 K, 100 kPa	865.4 kg/m3
373.15 K, 2510 kPa	867.5 kg/m3
373.15 K, 5020 kPa	869.7 kg/m3
373.15 K, 7510 kPa	871.7 kg/m3
373.15 K, 10010 kPa	873.8 kg/m3
373.15 K, 14990 kPa	877.8 kg/m3
373.15 K, 20000 kPa	881.6 kg/m3
373.15 K, 30010 kPa	888.9 kg/m3
373.15 K, 40000 kPa	895.6 kg/m3
373.15 K, 50010 kPa	901.9 kg/m3
373.15 K, 68000 kPa	912.3 kg/m3
